Assay results as given in patent US9161935B2 (TEVA PHARMACEUTICAL INDUSTRIES, LTD., priority 2012, dated 2015).

Assays:
[1] = test system: Moderate to severe Crohn's disease (CD) subjects; assay: Phase IIa trial CD-LAQ-201: clinical effect (CDAI remission, response); assay type: in vivo, human; settings: for effects on remission and response 100: week 8
Procedure: Overall up to ˜180 Crohn's disease patients are enrolled.
The capsules were prepared using a blend proportional to the 0.6 mg capsules described in PCT International Application No. PCT/US2007/013721 (WO 2007/146248). The capsules were prepared according to the method described in PCT International Application No. PCT/US2007/013721 (WO 2007/146248), which is hereby incorporated by reference into this application.
A loading dose regimen of double the maintenance/intended dose was given during the first two days of study drug treatment. Thereafter, starting on day 3, the daily maintenance/intended dose was administered.
Subjects are required to maintain CDAI diary cards for each day of the screening period and, if randomized, on each day of the treatment and follow-up period. The scores obtained from the seven consecutive diaries completed prior to the baseline visit and to each of weeks 1, 2, 4, 6, 8 and 12 contribute to a total CDAI score at each of the time points.
Moderate to severe Crohn's disease (CD) subjects as determined by a Crohn's Disease Activity Index (CDAI) score of 220-450 (inclusive).
Each dose was studied sequentially in a distinct cohort.
Scheduled in-clinic visits were conducted at screening, baseline and at weeks 1, 2, 4, 6 and 8. […] Subjects who early-discontinues study drug prior to visit week 8 go to follow-up termination visit within 4 weeks (28 days) of study drug discontinuation.
The study exploratory efficacy outcome measures were chosen according to the draft EMEA guidelines for the treatment of active Crohn's disease/induction of remission (EMEA, 2007) • 1. Proportion of subjects in clinical remission (total CDAI score <150) at weeks 4, 6, 8 and 12 (and were not treatment failures). • 2. Proportion of subjects who respond to treatment (decrease from baseline of at least 100 points in CDAI score ore remission) at week 4, 6, 8 and 12. • 3. Time to remission. • 4. Time to response. • 5. C-Reactive Protein (CRP) change from baseline at weeks 2, 4, 6, 8 and 12. • 6. Fecal calprotectin change from baseline to weeks 2, 4, 6, 8 and 12. • 7. Proportion of subjects with a decrease from baseline of at least 50% in the number of open draining fistulas.

fecal calprotectin = assay: Phase IIa trial CD-LAQ-201: changes in fecal calprotectin levels; assay type: in vivo, human; settings: for % of patients with a calprotectin decrease from ≧250 μg/g to below 250 μg/g & greater than 50% reduction: Week 8
Description: As used herein, “calprotectin” is a calcium and zinc binding anti-microbial protein released by granulocytes. This protein can be detected in stool and its concentration reflects the number of polymorphonuclear leukocytes (PMN), migrating into the gut lumen. It is therefore considered a bio-marker for intestinal inflammation. […] Proportion of subjects in clinical remission (total CDAI score <150) at weeks 4, 6, 8 and 12 (and were not treatment failures). • 2. Proportion of subjects who respond to treatment (decrease from baseline of at least 100 points in CDAI score ore remission) at week 4, 6, 8 and 12. • 3. Time to remission. • 4. Time to response. • 5. C-Reactive Protein (CRP) change from baseline at weeks 2, 4, 6, 8 and 12. • 6. Fecal calprotectin change from baseline to weeks 2, 4, 6, 8 and 12. • 7. Proportion of subjects with a decrease from baseline of at least 50% in the number of open draining fistulas.

[2] = Previous pharmacokinetic studies of laquinimod; assay type: in vivo; settings: loading dose regimen (double dose on first two days)
Description: In order to decrease thee time to steady state and potentially decrease time to response, a loading dose regimen described below was used to allow steady state levels to be reached in approximately 6-7 days.

Structure (SMILES): CCN(C(=O)c1c(O)c2c(Cl)cccc2n(C)c1=O)c1ccccc1 [laquinimod]
- effects on remission and response 100 ([1]; 0.5 mg/day): effects on remission and response 100 were observed
- effects on remission and response 100 ([1]; 1 mg/day): lower magnitude effects
- effects on remission and response (conclusion) ([1]; 0.5 and 1 mg doses): clinically relevant effects
- time at which clinical remission was achieved ([1]; laquinimod 0.5 mg/day group): ≥ 2 week
- time at which response 100 was achieved ([1]; laquinimod 0.5 mg/day group): 7 days
- time to clinical remission and response 100 versus pooled placebo ([1]; laquinimod 0.5 mg/day group): earlier than patients in the pooled placebo group
- % Change from Baseline in fecal calprotectin level at Week 8, Mean ± SD (fecal calprotectin; Laq 0.5 mg): 25.5 ± 132.93%
- % Change from Baseline in fecal calprotectin level at Week 8, Median (fecal calprotectin; Laq 0.5 mg): −23.1%
- % of patients with a calprotectin decrease from ≧250 μg/g to below 250 μg/g & greater than 50% reduction (fecal calprotectin; Laq 0.5 mg): 38.9%
- % Change from Baseline in fecal calprotectin level at Week 8, Mean ± SD (fecal calprotectin; Laq 1.0 mg): 0.2 ± 91.55%
- % Change from Baseline in fecal calprotectin level at Week 8, Median (fecal calprotectin; Laq 1.0 mg): −14.4%
- % of patients with a calprotectin decrease from ≧250 μg/g to below 250 μg/g & greater than 50% reduction (fecal calprotectin; Laq 1.0 mg): 38.9%
- % Change from Baseline in fecal calprotectin level at Week 8, Mean ± SD (fecal calprotectin; Laq 1.5 mg): 13.9 ± 108.97%
- % Change from Baseline in fecal calprotectin level at Week 8, Median (fecal calprotectin; Laq 1.5 mg): −18.7%
- % of patients with a calprotectin decrease from ≧250 μg/g to below 250 μg/g & greater than 50% reduction (fecal calprotectin; Laq 1.5 mg): 26.7%
- % Change from Baseline in fecal calprotectin level at Week 8, Mean ± SD (fecal calprotectin; Laq 2.0 mg): 44.3 ± 198.71%
- % Change from Baseline in fecal calprotectin level at Week 8, Median (fecal calprotectin; Laq 2.0 mg): −20.1%
- % of patients with a calprotectin decrease from ≧250 μg/g to below 250 μg/g & greater than 50% reduction (fecal calprotectin; Laq 2.0 mg): 36.4%
- effect on fecal calprotectin (fecal calprotectin; all doses (0.5-2 mg/day)): reduced fecal calprotectin
- objective measures of intestinal inflammation in active CD (fecal calprotectin; all doses (LAQ 0.5-2 mg/day)): reduce objective measures of intestinal inflammation
- percentage of patients with fecal calprotectin ≧250 μg/g at baseline showing at least a 50% reduction and levels <250 μg/g at Week 8 (fecal calprotectin; laquinimod groups (all doses), pooled placebo 13.6%): 26.7-38.9%
- time to steady state levels [2]: 6 to 7 days
